From the supplement of paper PMC9938120

How the values were obtained:
Assay in all cases: drug sensitivity score (DSS3, normalised partial AUC of % inhibition dose-response) (DSS (score)); higher = more sensitive (stronger inhibition of viability); extreme values may be limits of the assay
[1] = tested on: FMOC02_1 (patient-derived low-grade serous ovarian cancer cells); settings: 72 h; library: FO5A; assay format: 2D, 384-well, CellTiter-Glo
Procedure, shortened: (§1)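 On 384-well flat clear-bottom plates carrying compounds at five concentrations across a 10,000-fold range, patient-derived ovarian cancer cells below passage 10 were incubated for 72 h at 37 °C with 5% CO2. CellTiter-Glo readout of viability was processed in Breeze. A higher drug sensitivity score, defined as the partial area under the percent-inhibition dose-response curve divided by the log of the upper asymptote, means greater sensitivity.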

[2] = tested on: FMOC02_2 (patient-derived low-grade serous ovarian cancer cells); settings: 72 h; library: FO5A; assay format: 2D, 384-well, CellTiter-Glo
Procedure, shortened: as §1

[3] = tested on: FMOC02_3 (patient-derived low-grade serous ovarian cancer cells); settings: 72 h; library: FO5A; assay format: 2D, 384-well, CellTiter-Glo
Procedure, shortened: as §1

[4] = tested on: FMOC03 (patient-derived mucinous ovarian cancer cells); settings: 72 h; library: FO5A; assay format: 2D, 384-well, CellTiter-Glo
Procedure, shortened: as §1

[5] = tested on: FMOC04 (patient-derived high-grade serous ovarian cancer cells); settings: 72 h; library: FO5A; assay format: 2D, 384-well, CellTiter-Glo
Procedure, shortened: as §1

[6] = tested on: FMOC06 (patient-derived mucinous ovarian cancer cells); settings: 72 h; library: FO5A; assay format: 2D, 384-well, CellTiter-Glo
Procedure, shortened: as §1

[7] = tested on: FMOC09 (patient-derived high-grade serous ovarian cancer cells); settings: 72 h; library: FO5A; assay format: 2D, 384-well, CellTiter-Glo
Procedure, shortened: as §1

[8] = tested on: FMOC11 (patient-derived high-grade serous ovarian cancer cells); settings: 72 h; library: FO5A; assay format: 2D, 384-well, CellTiter-Glo
Procedure, shortened: as §1

[9] = tested on: FMOC14 (patient-derived high-grade serous ovarian cancer cells); settings: 72 h; library: FO5A; assay format: 2D, 384-well, CellTiter-Glo
Procedure, shortened: as §1

[10] = tested on: FMOC17 (patient-derived low-grade serous ovarian cancer cells); settings: 72 h; library: FO5A; assay format: 2D, 384-well, CellTiter-Glo
Procedure, shortened: as §1

[11] = tested on: FMOC22 (patient-derived mucinous ovarian cancer cells); settings: 72 h; library: FO5A; assay format: 2D, 384-well, CellTiter-Glo
Procedure, shortened: as §1

[12] = tested on: FMOC24 (patient-derived high-grade serous ovarian cancer cells); settings: 72 h; library: FO5A; assay format: 2D, 384-well, CellTiter-Glo
Procedure, shortened: as §1

[13] = tested on: FMOC25_1 (patient-derived low-grade serous ovarian cancer cells); settings: 72 h; library: FO4B; assay format: 2D, 384-well, CellTiter-Glo
Procedure, shortened: as §1

[14] = tested on: FMOC25_2 (patient-derived low-grade serous ovarian cancer cells); settings: 72 h; library: FO5A; assay format: 2D, 384-well, CellTiter-Glo
Procedure, shortened: as §1

[15] = tested on: FMOC27 (patient-derived low-grade serous ovarian cancer cells); settings: 72 h; library: FO5A; assay format: 2D, 384-well, CellTiter-Glo
Procedure, shortened: as §1

[16] = tested on: FMOC28 (patient-derived low-grade serous ovarian cancer cells); settings: 72 h; library: FO5A; assay format: 2D, 384-well, CellTiter-Glo
Procedure, shortened: as §1

| SMILES | drug sensitivity score [1] | drug sensitivity score [2] | drug sensitivity score [3] | drug sensitivity score [4] | drug sensitivity score [5] | drug sensitivity score [6] | drug sensitivity score [7] | drug sensitivity score [8] | drug sensitivity score [9] | drug sensitivity score [10] | drug sensitivity score [11] | drug sensitivity score [12] | drug sensitivity score [13] | drug sensitivity score [14] | drug sensitivity score [15] | drug sensitivity score [16] |
| --- | --- | --- | --- | --- | --- | --- | --- | --- | --- | --- | --- | --- | --- | --- | --- | --- |
| CC(C)N(CCCNC(=O)Nc1ccc(C(C)(C)C)cc1)C[C@H]1O[C@@H](n2cc(Br)c3c(N)ncnc32)[C@H](O)[C@@H]1O [SGC0946] | 1.2 | 2.8 | 0.9 | 0.1 | 0.95 | 1.4 | 0 | 0.6 | 0 | 2 | 0.1 | 3.95 | 0 | 2.5 | 1.8 | 3.3 |
| COc1ccc(CCc2nc3cc(-c4c(C)noc4C)ccc3n2C[C@H](C)N2CCOCC2)cc1Cl [SGC-CBP30] | 4.5 | 3.3 | 2 | 2.8 | 1.3 | 4.6 | 2.5 | 4.6 | 1 | 1.4 | 2.9 | 5.6 | 0.8 | 6.1 | 3.1 | 2.4 |
| CC[C@H](CO)Nc1nc(NCc2ccccc2)c2ncn(C(C)C)c2n1 [Seliciclib] | 4.1 | 4.3 | 3.5 | 1.5 | 0.1 | 0.1 | 0 | 0 | 1.5 | 1.4 | 0 | 1.35 | 0.9 | 2.1 | 0 | 1.2 |
| CO[C@H]1C[C@@H]2CC[C@@H](C)[C@@](O)(O2)C(=O)C(=O)N2CCCC[C@H]2C(=O)O[C@H]([C@H](C)C[C@@H]2CC[C@@H](O)[C@H](OC)C2)CC(=O)[C@H](C)/C=C(\C)[C@@H](O)[C@@H](OC)C(=O)[C@H](C)C[C@H](C)/C=C/C=C/C=C/1C [Sirolimus] | 6.3 | 7.3 | 10 | 2 | 1.1 | 2.5 | 1.4 | 2.1 | 1 | 4.7 | 4 | 6.1 | 8.9 | 6.3 | 3.1 | 3.3 |
| Cc1c(C(=O)Nc2ccc(N3C[C@@H](C)O[C@@H](C)C3)nc2)cccc1-c1ccc(OC(F)(F)F)cc1 [Sonidegib] | 2.1 | 0.1 | 1.3 | 0 | 0 | 0 | 0.1 | 0.4 | 0 | 3 | 0 | 2.45 | 0 | 0 | 0 | 2.1 |
| C=CCN(/C=C1/C(=O)O[C@H](COC)[C@@]2(C)C1=C(O)C(=O)C1=C2[C@H](OC(C)=O)C[C@]2(C)C(=O)CC[C@@H]12)CC=C [Sonolisib] | 0 | 0.3 | 0.4 | 0 | 0 | 0 | 0 | 0 | 0 | 0 | 0 | 0.25 | 0 | 0 | 0 | 0.4 |
| CNC(=O)c1cc(Oc2ccc(NC(=O)Nc3ccc(Cl)c(C(F)(F)F)c3)cc2)ccn1 [Sorafenib] | 0 | 0 | 0 | 0 | 0 | 0 | 0 | 0 | 0 | 0.5 | 0 | 0 | 0 | 0 | 0 | 0 |
| CN1CCN(c2nc(C3=C(c4c[nH]c5ccccc45)C(=O)NC3=O)c3ccccc3n2)CC1 [Sotrastaurin] | 3 | 4.3 | 9.9 | 0 | 0 | 0 | 0 | 2.1 | 0 | 3.9 | 0 | 1.85 | 0 | 0 | 0 | 0 |
| C=CC(=O)Nc1cccc(Nc2nc(Nc3ccc(OCCOC)cc3)ncc2F)c1 [Spebrutinib] | 3.1 | 2.9 | 5.7 | 0 | 0 | 0 | 1.5 | 0.9 | 0 | 2.3 | 0 | 0 | 0 | 2.9 | 2.2 | 1.6 |
| CC(C)n1cnc2c(NCCc3ccc(O)cc3)nc(-c3csc4ccccc34)nc21 [StemRegenin 1] | 4.2 | 6 | 4.7 | 4.8 | 1.95 | 4.5 | 0.3 | 1 | 0.6 | 6.8 | 2.7 | 6.15 | 1.6 | 6.1 | 6.9 | 2.9 |
| CCN(CC)CCNC(=O)c1c(C)[nH]c(/C=C2\C(=O)Nc3ccc(F)cc32)c1C [Sunitinib] | 2.3 | 0.9 | 0.6 | 0 | 0 | 0 | 0 | 0 | 0 | 0.1 | 0 | 0 | 0 | 0.5 | 0 | 0 |
| CC(C)(O)CC(=O)NCCn1ccc2ncnc(Nc3ccc(Oc4cccc(C(F)(F)F)c4)c(Cl)c3)c21 [TAK-285] | 6.2 | 8.6 | 5.3 | 5.1 | 0 | 1.3 | 3.7 | 2.7 | 1 | 4.5 | 0 | 0.9 | 5 | 4.8 | 4.3 | 2.4 |
| Cc1cccc(-c2[nH]c(CNc3ccccc3F)nc2-c2ccc3ncnn3c2)n1 [TEW-7197] | 0 | 1.8 | 0.1 | 0 | 0 | 3.9 | 0 | 0.4 | 0 | 0 | 0 | 0.85 | 0 | 0 | 0.2 | 0 |
| Nc1nc(N)c2nc(-c3cccc(O)c3)c(-c3cccc(O)c3)nc2n1 [TG100-115] | 0 | 0 | 1.4 | 0.1 | 0 | 0.4 | 0.3 | 0.4 | 0.7 | 1.1 | 0 | 0.1 | 0 | 0.7 | 0 | 0 |
| Cc1cc(C(C)Nc2ccccc2)c2nc(N3CCOCC3)cc(=O)n2c1 (configuration not stated) [TGX-221] | 2 | 3.3 | 0.8 | 1 | 0.35 | 1.1 | 0 | 0.3 | 0 | 2.4 | 0 | 0.75 | 1.7 | 2.6 | 2 | 0 |
| Nc1nc(NC2CC2)cc(-c2cccc(Cl)c2Cl)n1 [TH588] | 3.4 | 5.2 | 5.4 | 0.4 | 1.15 | 0 | 1.2 | 2.2 | 0.2 | 3 | 2.3 | 0.2 | 2.1 | 2.2 | 2.3 | 5.7 |
| Clc1ccccc1C(c1ccccc1)(c1ccccc1)n1cccn1 [TRAM-34] | 0 | 0 | 0 | 0 | 0 | 0 | 0 | 0 | 0 | 0 | 0 | 0 | 0 | 0 | 0 | 1.5 |
| CC(=O)Nc1ccc(C(=O)Nc2ccccc2N)cc1 [Tacedinaline] | 0.7 | 1.3 | 2 | 0 | 0 | 3.7 | 0 | 1 | 0.6 | 1.1 | 0 | 2.05 | 0 | 0 | 0 | 1.7 |
| C=CC[C@@H]1/C=C(\C)C[C@H](C)C[C@H](OC)[C@H]2O[C@@](O)(C(=O)C(=O)N3CCCC[C@H]3C(=O)O[C@H](/C(C)=C/[C@@H]3CC[C@@H](O)[C@H](OC)C3)[C@H](C)[C@@H](O)CC1=O)[C@H](C)C[C@@H]2OC [Tacrolimus] | 0.4 | 1.9 | 1.9 | 0 | 0 | 0 | 0 | 1.4 | 1.4 | 0.9 | 0.1 | 5 | 0 | 0 | 1.7 | 0.8 |
| Cn1ncnc1[C@H]1c2n[nH]c(=O)c3cc(F)cc(c23)N[C@@H]1c1ccc(F)cc1 [Talazoparib] | 7 | 2.3 | 5.7 | 0.1 | 0.25 | 2.2 | 0.9 | 1.4 | 0.7 | 2.7 | 3.5 | 4.1 | 4.8 | 5.7 | 5.5 | 0.7 |
| C[C@@H]1CN(Cc2ccc(F)cc2)[C@@H](C)CN1C(=O)c1cc2c(C(=O)C(=O)N(C)C)cn(C)c2cc1Cl [Talmapimod] | 0 | 0 | 0 | 0 | 0 | 0 | 0 | 0.2 | 0 | 0 | 0 | 0 | 0 | 0 | 0 | 1.2 |
| CC/C(=C(\c1ccccc1)c1ccc(OCCN(C)C)cc1)c1ccccc1 [Tamoxifen] | 6.5 | 3.8 | 4.8 | 4.3 | 3.75 | 5.2 | 1.6 | 3.9 | 4 | 3 | 3.2 | 7.35 | 2.3 | 2.4 | 3.1 | 2.6 |
